Laboratory results taken from patent US20240279159A1, “HERBICIDAL ARYLCYCLOPENTENE CARBOXAMIDES” (BASF SE, priority 2021, published 2024).

What was measured:
ALOMY = test: greenhouse herbicidal test, post-emergence treatment; type: in vivo, Alopercurus myosuroides; conditions: post-emergence method, scale from 0 to 100
From the text: (§1) The culture containers used were plastic flowerpots containing loamy sand with approximately 3.0% of humus as the substrate. The seeds of the test plants were sown separately for each species.
(§2) For the pre-emergence treatment, the active ingredients, which had been suspended or emulsified in water, were applied directly after sowing by means of finely distributing nozzles. The containers were irrigated gently to promote germination and growth and subsequently covered with transparent plastic hoods until the test plants had rooted. This cover caused uniform germination of the test plants, unless this had been impaired by the active ingredients. For the post-emergence treatment, the test plants were first grown to a height of 3 to 15 cm, depending on the plant habit, and only then treated with the active ingredients which had been suspended or emulsified in water. For this purpose, the test plants were either sown directly and grown in the same containers, or they were first grown separately as seedlings and transplanted into the test containers a few days prior to treatment.
(§3) Depending on the species, the test plants were kept at 10-25° C. or 20-35° C., respectively. The test period extended over 2 to 4 weeks. During this time, the test plants were tended, and their response to the individual treatments was evaluated.
Evaluation was carried out using a scale from 0 to 100. 100 means no emergence of the test plants, or complete destruction of at least the aerial moieties, and 0 means no damage, or normal course of growth. A good herbicidal activity is given at values of 60 to 90 and a very good herbicidal activity is given at values of 90 to 100.
The test plants used in the greenhouse experiments were of the following species: […]

AMARE [1] = test: greenhouse herbicidal test, pre-emergence treatment; type: in vivo, Amaranthus retroflexus; conditions: pre-emergence method, application rate 0.250 kg/ha; scale from 0 to 100
From the text: as §1, §2, §3
(§4) Evaluation was carried out using a scale from 0 to 100. […]

ECHCG [2] = test: as above; type: in vivo, Echinocloa crus-galli; conditions: pre-emergence method, application rate 1,000 kg/ha; scale from 0 to 100
From the text: as §1, §2, §3, §4

SETFA = test: as above; type: in vivo, Setaria faberi; conditions: pre-emergence method, application rate 1,000 kg/ha; scale from 0 to 100
From the text: as §1, §2, §3, §4

AMARE [3] = test: greenhouse herbicidal test, post-emergence treatment; type: in vivo, Amaranthus retroflexus; conditions: post-emergence method, scale from 0 to 100
From the text: as §1, §2, §3, §4

ABUTH = test: as above; type: in vivo, Abutilon theophrasti; conditions: post-emergence method, application rate 0.250 kg/ha; scale from 0 to 100
From the text: as §1, §2, §3, §4

ECHCG [4] = test: as above; type: in vivo, Echinocloa crus-galli; conditions: post-emergence method, application rate 0.250 kg/ha; scale from 0 to 100
From the text: as §1, §2, §3, §4

COC(=O)[C@@H]1C=C[C@H](NC(=O)C2(C)CC(c3cc(Cl)cc(Cl)c3)=CO2)C1 (relative stereo) [I6]
herbicidal activity against ALOMY (ALOMY; application rate 0.250 kg/ha): very good (a very good herbicidal activity is given at values of 90 to 100)

COC(=O)[C@@H]1C=C[C@H](NC(=O)C2(C(F)(F)F)CC(c3cc(F)cc(F)c3)=CO2)C1 (relative stereo) [I8]
herbicidal activity against AMARE (AMARE [1]): good (A good herbicidal activity is given at values of 60 to 90)

COC(=O)C[C@H](C)NC(=O)C1(C)CC(c2cc(F)cc(F)c2)=CO1 (single isomer, unassigned) [I1]
herbicidal activity against ALOMY (ALOMY; application rate 1.000 kg/ha): very good (a very good herbicidal activity is given at values of 90 to 100)

COC(=O)C[C@H](C)NC(=O)C1(C)CC(c2cc(F)cc(F)c2)=CO1 (single isomer, unassigned) [I2]
herbicidal activity against ECHCG (ECHCG [2]): good (A good herbicidal activity is given at values of 60 to 90)
herbicidal activity against SETFA (SETFA): good (A good herbicidal activity is given at values of 60 to 90)
herbicidal activity against ALOMY (ALOMY; application rate 1.000 kg/ha): good (A good herbicidal activity is given at values of 60 to 90)

COC(=O)C[C@H](C)NC(=O)C1(C)CC(c2cc(Cl)cc(Cl)c2)=CO1 (single isomer, unassigned) [I3]
herbicidal activity against AMARE (AMARE [3]; application rate 1.000 kg/ha): very good (a very good herbicidal activity is given at values of 90 to 100)

COC(=O)C1CCC(NC(=O)C2(C)CC(c3cc(Cl)cc(Cl)c3)=CO2)C1 (stereo not shown) [I14]
herbicidal activity against AMARE (AMARE [3]; application rate 0.250 kg/ha): good (A good herbicidal activity is given at values of 60 to 90)
herbicidal activity against ABUTH (ABUTH): good (A good herbicidal activity is given at values of 60 to 90)

COC(=O)[C@@H]1C=C[C@H](NC(=O)C2(C)CC=C(c3cc(F)cc(F)c3)C2=O)C1 (stereo partly drawn) [I111, methyl (1S,4R)-4-[[3-(3,5-difluorophenyl)-1-methyl-2-oxo-cyclopent-3-ene-1-carbonyl]amino]cyclopent-2-ene-1-carboxylate]
herbicidal activity against ECHCG (ECHCG [4]): good (A good herbicidal activity is given at values of 60 to 90)
